Reference: BindingDB's records for PubMed 1652050 (Seattle Veterans Affairs Medical Center, 1991)
Several values for one entry are separate records, joined by “and”; a condition that tells them apart may be missing. Equal values may be shown once.

Molecular target: 5-hydroxytryptamine receptor 1D (Homo sapiens, UniProt P28221)
Sequence (P28221 whole entry): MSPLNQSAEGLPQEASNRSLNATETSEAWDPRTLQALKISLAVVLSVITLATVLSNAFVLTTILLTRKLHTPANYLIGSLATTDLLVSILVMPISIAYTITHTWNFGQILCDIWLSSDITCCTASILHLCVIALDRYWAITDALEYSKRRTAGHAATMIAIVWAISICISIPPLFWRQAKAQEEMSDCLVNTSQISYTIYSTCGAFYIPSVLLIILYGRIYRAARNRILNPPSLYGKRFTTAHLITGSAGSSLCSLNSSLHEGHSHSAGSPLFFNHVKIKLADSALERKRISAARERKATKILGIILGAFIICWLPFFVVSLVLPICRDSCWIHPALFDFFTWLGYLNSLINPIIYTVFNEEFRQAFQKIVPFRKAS

Row | Compound | Ki
1 | COC(=O)[C@@H]1[C@H]2C[C@H]3c4[nH]c5ccccc5c4CCN3C[C@@H]2CC[C@@H]1O [yohimbic acid methyl ester] | 59 nM and 51 nM
2 | Clc1cccc(N2CCNCC2)c1 [mCPP] | 210 nM
3 | CN1CC(C(=O)N[C@]2(C)O[C@@]3(O)C4CCCN4C(=O)[C@H](Cc4ccccc4)N3C2=O)CC2c3cccc4[nH]cc(c34)CC21 (stereo partly drawn) [7-Methyl-4,6,6a,7,8,9,10,10a-octahydro-indolo[4,3-fg]quinoline-9-carboxylic acid ((2R,5S,10bS)-5-benzyl-10b-hydroxy-2-methyl-3,6-dioxo-octahydro-oxazolo[3,2-a]pyrrolo[2,1-c]pyrazin-2-yl)-amide] | 0.13 nM
4 | CN1C[C@@H](NS(=O)(=O)N(C)C)C[C@@H]2c3cccc4c3c(cn4C)C[C@H]21 [MESULERGINE] | 1700 nM
5 | O=C(CCCN1CCC2(CC1)C(=O)NCN2c1ccccc1)c1ccc(F)cc1 [8-[4-(4-fluorophenyl)-4-oxidanylidene-butyl]-1-phenyl-1,3,8-triazaspiro[4.5]decan-4-one] | 3100 nM
6 | CC(C)(C)NCC(O)COc1cccc2[nH]c(C#N)cc12 (centres undefined) [NSC_155346] | 85 nM
7 | CN1C[C@H](CNC(=O)OCc2ccccc2)C[C@@H]2c3cccc4c3c(cn4C)C[C@H]21 [METERGOLINE] | 0.61 nM
8 | CSc1ccc2c(c1)C(N1CCN(C)CC1)Cc1ccccc1S2 (centres undefined) [methanesulfonic acid;1-methyl-4-(3-methylsulfanyl-5,6-dihydrobenzo[b][1]benzothiepin-5-yl)piperazine] | 5.8 nM
9 | CN1C2CCC1CC(OC(=O)c1c[nH]c3ccccc13)C2 (centres undefined) | > 10000 nM
